In the NIST ThermoML archive (doi:10.1016/j.jct.2018.02.022):

Experiment: xn = mol fraction of the nth substance listed
Conditions: 92.3 kPa, Liquid; for viscosity: Concentric cylinders viscometry; for speed of sound: Frequency=3 MHz, Single path-length method; for mass density: Vibrating tube method

OCCOCCOCCO [triethylene glycol] + O
Conditions | mass density, 293.15 K [kg/m3] | mass density, 298.15 K [kg/m3] | speed of sound, 293.15 K [m/s] | speed of sound, 298.15 K [m/s] | viscosity, 293.15 K [mPa·s] | viscosity, 298.15 K [mPa·s]
x1 = 0.0101 | 1009.83 | 1008.38 | 1526.7 | 1537.4 | – | –
x1 = 0.0196 | 1019.71 | 1017.88 | 1563.3 | 1571 | – | –
x1 = 0.025 | 1024.91 | 1023.1 | – | – | 1.881 | 1.524
x1 = 0.029 | 1028.88 | 1027.04 | 1595.7 | 1600.5 | – | –
x1 = 0.0381 | 1036.74 | 1034.7 | 1622.5 | 1625 | – | –
x1 = 0.0489 | 1044.89 | 1042.58 | – | – | 2.921 | 2.329
x1 = 0.0496 | 1045.76 | 1043.48 | 1651.6 | 1651.4 | – | –
x1 = 0.0601 | 1053.18 | 1050.7 | 1673.8 | 1671.4 | – | –
x1 = 0.0689 | 1058.69 | 1056.05 | 1689 | 1685.1 | – | –
x1 = 0.0754 | 1062.23 | 1059.51 | – | – | 4.368 | 3.456
x1 = 0.0801 | 1065 | 1062.2 | 1704.9 | 1699.4 | – | –
x1 = 0.0905 | 1070.23 | 1067.29 | 1716.5 | 1709.8 | – | –
x1 = 0.0993 | 1074.35 | 1071.33 | – | – | 5.989 | 4.677
x1 = 0.0996 | 1074.38 | 1071.33 | 1724.7 | 1716.9 | – | –
x1 = 0.1479 | 1090.64 | 1087.21 | 1744.5 | 1733.4 | – | –
x1 = 0.15 | 1091.94 | 1088.51 | – | – | 10.19 | 7.813
x1 = 0.1993 | 1101.82 | 1098.18 | – | – | 14.46 | 11.2
x1 = 0.2004 | 1101.27 | 1097.63 | 1742 | 1729.3 | – | –
x1 = 0.2462 | 1107.12 | 1103.39 | 1732.1 | 1718.8 | – | –
x1 = 0.2526 | 1107.94 | 1104.19 | – | – | 19.41 | 14.94
x1 = 0.2998 | 1111.26 | 1107.47 | – | – | 23.57 | 18.09
x1 = 0.3004 | 1111.57 | 1107.79 | 1718.2 | 1704.4 | – | –
x1 = 0.3474 | 1114.22 | 1110.41 | 1706.1 | 1692.1 | – | –
x1 = 0.3539 | 1113.94 | 1110.13 | – | – | 27.83 | 21.31
x1 = 0.3948 | 1116.15 | 1112.33 | 1694.8 | 1680.7 | – | –
x1 = 0.4009 | 1115.83 | 1112.01 | – | – | 31.2 | 23.85
x1 = 0.4467 | 1117.71 | 1113.88 | 1683.9 | 1669.6 | – | –
x1 = 0.4492 | 1117.53 | 1113.7 | – | – | 34.1 | 26.05
x1 = 0.4992 | 1119.04 | 1115.2 | – | – | 36.67 | 28.01
x1 = 0.5021 | 1118.97 | 1115.13 | 1673.6 | 1659.2 | – | –
x1 = 0.548 | 1119.77 | 1115.93 | 1666.3 | 1651.9 | – | –
x1 = 0.5484 | 1120.2 | 1116.36 | – | – | 38.84 | 29.68
x1 = 0.5923 | 1120.43 | 1116.59 | 1660 | 1645.4 | – | –
x1 = 0.5996 | 1121.03 | 1117.17 | – | – | 40.64 | 31.06
x1 = 0.6442 | 1121.04 | 1117.19 | 1653.7 | 1639.1 | – | –
x1 = 0.6506 | 1121.46 | 1117.6 | – | – | 42.15 | 32.21
x1 = 0.701 | 1121.62 | 1117.76 | – | – | 43.67 | 33.32
x1 = 0.7095 | 1121.66 | 1117.81 | 1647 | 1632.3 | – | –
x1 = 0.7531 | 1122.03 | 1118.17 | 1642.9 | 1628.1 | – | –
x1 = 0.7567 | 1121.7 | 1117.85 | – | – | 44.87 | 34.32
x1 = 0.7859 | 1122.28 | 1118.42 | 1640.2 | 1625.3 | – | –
x1 = 0.8035 | 1121.91 | 1118.05 | – | – | 45.73 | 34.99
x1 = 0.8387 | 1122.62 | 1118.75 | 1636.5 | 1621.5 | – | –
x1 = 0.8406 | 1122.25 | 1118.38 | – | – | 46.36 | 35.51
x1 = 0.8981 | 1123.02 | 1119.14 | – | – | 46.96 | 35.95
x1 = 0.9031 | 1123.01 | 1119.13 | 1632.1 | 1617 | – | –
x1 = 0.9181 | 1123.08 | 1119.2 | 1631.3 | 1616.2 | – | –
x1 = 0.9344 | 1123.16 | 1119.28 | 1630.5 | 1615.4 | – | –
x1 = 0.9489 | 1123.57 | 1119.68 | – | – | 47.64 | 36.46
x1 = 0.9569 | 1123.28 | 1119.39 | 1629.2 | 1614.1 | – | –
x1 = 0.9782 | 1123.37 | 1119.48 | 1628.1 | 1612.9 | – | –
x1 = 1 | 1123.48 | 1119.59 | 1626.8 | 1611.6 | 48.06 | 36.88
